Experimental data as given in ChEMBL document CHEMBL1132033, “Stabilization of microtubules by Combretastatin D derivatives” (Bioorg Med Chem Lett, 1999).

Legend:
1A9 = experiment: Inhibitory activity against Taxol resistant 1A9 cell lines; type: functional, cell-based; details: Homo sapiens
1A9/ptx-10 = experiment: Inhibitory activity against Taxol resistant PTX10 cell lines; type: functional, cell-based; details: Homo sapiens
1A9/ptx-22 = experiment: Inhibitory activity against Taxol resistant PTX22 cell lines; type: functional, cell-based; details: Homo sapiens
[1] = target: Tubulin alpha chain (Sus scrofa) (UniProt P02550); experiment: Inhibitory activity against tubulin polymerization at 0.25 mM concentration; type: functional
[2] = target: Tubulin alpha chain (Sus scrofa) (UniProt P02550); experiment: Inhibitory activity against tubulin polymerization at 0.5 mM concentration; type: functional
[3] = target: Tubulin alpha chain (Sus scrofa) (UniProt P02550); experiment: Inhibitory activity against tubulin polymerization at 1.0 mM concentration; type: functional
[4] = target: Tubulin alpha chain (Sus scrofa) (UniProt P02550); experiment: Inhibitory activity against tubulin polymerization at 2.0 mM concentration; type: functional

Chain of Tubulin alpha chain (Sus scrofa) (P02550 whole entry, looked up): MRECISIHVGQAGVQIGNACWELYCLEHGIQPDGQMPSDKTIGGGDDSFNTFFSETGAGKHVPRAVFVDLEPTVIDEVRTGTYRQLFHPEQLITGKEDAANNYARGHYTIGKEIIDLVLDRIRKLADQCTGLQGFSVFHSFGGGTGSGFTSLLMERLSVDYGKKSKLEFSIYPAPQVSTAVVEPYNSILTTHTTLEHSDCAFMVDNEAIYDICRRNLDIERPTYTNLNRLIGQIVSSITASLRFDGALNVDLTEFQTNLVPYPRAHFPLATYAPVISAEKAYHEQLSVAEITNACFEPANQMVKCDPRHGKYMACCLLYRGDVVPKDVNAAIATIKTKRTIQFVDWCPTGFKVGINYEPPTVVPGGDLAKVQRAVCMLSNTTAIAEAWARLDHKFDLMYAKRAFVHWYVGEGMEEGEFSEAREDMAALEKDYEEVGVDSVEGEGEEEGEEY

| Structure (SMILES) | IC50 (1A9) [nM] | IC50 (1A9/ptx-10) [nM] | IC50 (1A9/ptx-22) [nM] | inhibition [1] [%] | inhibition [2] [%] | inhibition [3] [%] | inhibition [4] [%] |
| --- | --- | --- | --- | --- | --- | --- | --- |
| COc1ccc2cc1Oc1ccc(cc1)/C=C\COC(=O)CC2 | > 2500 | > 2500 | > 2500 | 16 | 19 | 27 | 35 |
| COc1ccc2cc1Oc1ccc(cc1)CC(I)COC(=O)CC2 (configuration not stated) | > 2500 | > 2500 | > 2500 | 5 | 28 | 35 | 54 |
| COc1c(Br)cc2cc1Oc1ccc(cc1)CC(O)COC(=O)CC2 (configuration not stated) | > 2500 | > 2500 | > 2500 | 3 | 21 | 39 | 67 |
| COc1ccc2cc1Oc1ccc(cc1)C1OC1COC(=O)CC2 (configuration not stated) | > 2500 | > 2500 | > 2500 | 0 | 20 | 27 | 39 |
| COc1ccc2cc1Oc1ccc(cc1)CC(O)COC(=O)CC2 (configuration not stated) | > 2500 | > 2500 | > 2500 | 27 | 47 | 62 | 76 |
| COc1cc2c(c(OC)c1OC)-c1ccc(OC)c(=O)cc1[C@@H](NC(C)=O)CC2 [COLCHICINE] | > 2500 | > 2500 | > 2500 | 4 | 3 | 4 | 0 |
